Test results from ChEMBL document CHEMBL1287731, “Synthesis and in vitro inhibitory activity of matrine derivatives towards pro-inflammatory cytokines” (Bioorg Med Chem Lett, 2010).

Key:
RAW264.7 [1] = experiment: Antiinflammatory activity in mouse RAW264.7 cells assessed as inhibition of LPS-induced TNF-alpha production after 6 hrs by ELISA; type: functional, cell-based; conditions: for IC50: RAW264.7, 6 h
RAW264.7 [2] = experiment: Inhibition of NF-kappaB transcriptional activity in LPS-stimulated mouse RAW264.7 cells by dual luciferase reporter assay relative to renilla luciferase activity; type: cell-based
RAW264.7 [3] = experiment: Cytotoxicity against mouse RAW264.7 cells; type: cell-based
RAW264.7 [4] = experiment: Antiinflammatory activity in mouse RAW264.7 cells assessed as inhibition of LPS-induced TNF-alpha production at 10 uM after 6 hrs by ELISA; type: functional; conditions: RAW264.7, 6 h

## O=C1CCC[C@@H]2[C@H]3CCCN4CCC[C@@H](CN12)[C@@H]34 [MATRINE]
RAW264.7 [1]
  inhibition: Dose-dependent effect
  IC50: > 200 µM
RAW264.7 [2]
  fold change (FC): 5.11
RAW264.7 [3]
  Activity: Non-toxic

## OCCN[C@@H]1CC(=S)N2C[C@@H]3CCCN4CCC[C@@H]([C@H]34)[C@H]2C1
RAW264.7 [4]
  inhibition at 10 µM: 29.3%
RAW264.7 [1]
  inhibition: Dose-dependent effect
  IC50: 39.2 µM
RAW264.7 [2]
  fold change (FC): 4.85
RAW264.7 [3]
  Activity: Non-toxic

## S=C1C[C@@H](NCc2ccccc2)C[C@@H]2[C@H]3CCCN4CCC[C@@H](CN12)[C@@H]34
RAW264.7 [4]
  inhibition at 10 µM: 33.9%
RAW264.7 [1]
  inhibition: Dose-dependent effect
  IC50: 62 µM
RAW264.7 [2]
  fold change (FC): 8.39
RAW264.7 [3]
  Activity: Non-toxic

## OCCOCCN[C@@H]1CC(=S)N2C[C@@H]3CCCN4CCC[C@@H]([C@H]34)[C@H]2C1
RAW264.7 [4]
  inhibition at 10 µM: 8.4%
RAW264.7 [1]
  inhibition: Dose-dependent effect
  IC50: 57.5 µM
RAW264.7 [2]
  fold change (FC): 4.75
RAW264.7 [3]
  Activity: Non-toxic

## N[C@@H]1CC(=O)N2C[C@@H]3CCCN4CCC[C@@H]([C@H]34)[C@H]2C1
RAW264.7 [1]
  inhibition: Dose-dependent effect
  IC50: > 200 µM
RAW264.7 [2]
  fold change (FC): 6.54
RAW264.7 [3]
  Activity: Non-toxic

## CCCN[C@@H]1CC(=S)N2C[C@@H]3CCCN4CCC[C@@H]([C@H]34)[C@H]2C1
RAW264.7 [4]
  inhibition at 10 µM: 9.6%
RAW264.7 [1]
  inhibition: Dose-dependent effect
  IC50: 93.5 µM
RAW264.7 [2]
  fold change (FC): 3.4
RAW264.7 [3]
  Activity: Non-toxic

## CC(C)N[C@@H]1CC(=S)N2C[C@@H]3CCCN4CCC[C@@H]([C@H]34)[C@H]2C1
RAW264.7 [4]
  inhibition at 10 µM: 24%
RAW264.7 [1]
  inhibition: Dose-dependent effect
  IC50: 52.3 µM
RAW264.7 [2]
  fold change (FC): 6.56
RAW264.7 [3]
  Activity: Non-toxic

## CN[C@@H]1CC(=S)N2C[C@@H]3CCCN4CCC[C@@H]([C@H]34)[C@H]2C1
RAW264.7 [4]
  inhibition at 10 µM: 9.1%
RAW264.7 [1]
  inhibition: Dose-dependent effect
  IC50: 93.2 µM
RAW264.7 [2]
  fold change (FC): 3.69
RAW264.7 [3]
  Activity: Non-toxic

## S=C1C[C@@H](NCC2CC2)C[C@@H]2[C@H]3CCCN4CCC[C@@H](CN12)[C@@H]34
RAW264.7 [4]
  inhibition at 10 µM: 16.2%
RAW264.7 [1]
  inhibition: Dose-dependent effect
  IC50: 119 µM
RAW264.7 [2]
  fold change (FC): 7.83
RAW264.7 [3]
  Activity: Non-toxic

## C=CCN[C@@H]1CC(=S)N2C[C@@H]3CCCN4CCC[C@@H]([C@H]34)[C@H]2C1
RAW264.7 [4]
  inhibition at 10 µM: 52.5%
RAW264.7 [1]
  inhibition: Dose-dependent effect
  IC50: 9.4 µM
RAW264.7 [2]
  fold change (FC): 1.47
RAW264.7 [3]
  Activity: Non-toxic

## CCN[C@@H]1CC(=S)N2C[C@@H]3CCCN4CCC[C@@H]([C@H]34)[C@H]2C1
RAW264.7 [4]
  inhibition at 10 µM: 41.5%
RAW264.7 [1]
  inhibition: Dose-dependent effect
  IC50: 23.5 µM
RAW264.7 [2]
  fold change (FC): 1.96
RAW264.7 [3]
  Activity: Non-toxic

## O=C1C=CC[C@@H]2[C@H]3CCCN4CCC[C@@H](CN12)[C@@H]34 [SOPHOCARPINE]
RAW264.7 [1]
  inhibition: Dose-dependent effect
  IC50: > 200 µM
RAW264.7 [2]
  fold change (FC): 3.47
RAW264.7 [3]
  Activity: Non-toxic

## OCCCN[C@@H]1CC(=S)N2C[C@@H]3CCCN4CCC[C@@H]([C@H]34)[C@H]2C1
RAW264.7 [4]
  inhibition at 10 µM: 22.8%
RAW264.7 [1]
  inhibition: Dose-dependent effect
  IC50: 53.8 µM
RAW264.7 [2]
  fold change (FC): 3.14
RAW264.7 [3]
  Activity: Non-toxic
